Laboratory results: PMC7429991 (Journal of medicinal chemistry, 2020)
Counter-ions that a name gives are not always drawn.

Assays:
[1] = biological target: rat nNOS (rnNOS) (Rattus norvegicus, UniProt P29476)
[2] = from PAMPA-BBB Pe
[3] = tested on: panel of 45 pharmacologically relevant CNS targets and receptors; assay: PDSP off-target radioligand displacement screen; type: binding; conditions: for PDSP targets classified moderate / PDSP targets classified insignificant / PDSP targets classified weak / PDSP targets classified Concerning: number of 45 targets; for PDSP targets classified moderate: 100–300 nM; for PDSP targets classified insignificant: <50% bound at 10 μM; for PDSP targets classified weak: >300 nM; for fraction of concerning or moderate hits: PDSP panel
[4] = biological target: H3 receptor (Homo sapiens, UniProt Q9Y5N1); assay: PDSP off-target binding, H3 receptor
[5] = biological target: M336V/D597N rnNOS (Rattus norvegicus, UniProt P29476, D597N/M336V); conditions: M336V/D597N vs D597N rnNOS
[6] = biological target: human eNOS (heNOS) (Homo sapiens, UniProt P29474)
[7] = biological target: D597N rnNOS (Rattus norvegicus, UniProt P29476, D597N)
[8] = biological target: H2 receptor (Homo sapiens, UniProt P25021); assay: PDSP off-target binding, H2 receptor
[9] = biological target: human iNOS (hiNOS) (Homo sapiens, UniProt P35228); conditions: read-out: Ki hiNOS; purified human iNOS; Ki from IC50 (Cheng-Prusoff)

H3 receptor, sequence (Q9Y5N1 whole entry): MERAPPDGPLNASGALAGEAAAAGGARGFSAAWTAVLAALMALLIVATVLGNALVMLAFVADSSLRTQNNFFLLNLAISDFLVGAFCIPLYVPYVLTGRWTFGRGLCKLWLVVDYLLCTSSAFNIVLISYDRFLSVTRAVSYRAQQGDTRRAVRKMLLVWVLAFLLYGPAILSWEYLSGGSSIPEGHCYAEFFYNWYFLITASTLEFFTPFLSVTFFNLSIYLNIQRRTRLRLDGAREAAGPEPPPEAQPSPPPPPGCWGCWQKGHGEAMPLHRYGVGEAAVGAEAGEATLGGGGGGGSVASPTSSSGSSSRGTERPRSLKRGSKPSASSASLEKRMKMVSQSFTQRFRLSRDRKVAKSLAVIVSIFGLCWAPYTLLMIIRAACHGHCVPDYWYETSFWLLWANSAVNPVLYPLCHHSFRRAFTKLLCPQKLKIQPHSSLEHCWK
M336V/D597N rnNOS, sequence (P29476 whole entry M336V/D597N): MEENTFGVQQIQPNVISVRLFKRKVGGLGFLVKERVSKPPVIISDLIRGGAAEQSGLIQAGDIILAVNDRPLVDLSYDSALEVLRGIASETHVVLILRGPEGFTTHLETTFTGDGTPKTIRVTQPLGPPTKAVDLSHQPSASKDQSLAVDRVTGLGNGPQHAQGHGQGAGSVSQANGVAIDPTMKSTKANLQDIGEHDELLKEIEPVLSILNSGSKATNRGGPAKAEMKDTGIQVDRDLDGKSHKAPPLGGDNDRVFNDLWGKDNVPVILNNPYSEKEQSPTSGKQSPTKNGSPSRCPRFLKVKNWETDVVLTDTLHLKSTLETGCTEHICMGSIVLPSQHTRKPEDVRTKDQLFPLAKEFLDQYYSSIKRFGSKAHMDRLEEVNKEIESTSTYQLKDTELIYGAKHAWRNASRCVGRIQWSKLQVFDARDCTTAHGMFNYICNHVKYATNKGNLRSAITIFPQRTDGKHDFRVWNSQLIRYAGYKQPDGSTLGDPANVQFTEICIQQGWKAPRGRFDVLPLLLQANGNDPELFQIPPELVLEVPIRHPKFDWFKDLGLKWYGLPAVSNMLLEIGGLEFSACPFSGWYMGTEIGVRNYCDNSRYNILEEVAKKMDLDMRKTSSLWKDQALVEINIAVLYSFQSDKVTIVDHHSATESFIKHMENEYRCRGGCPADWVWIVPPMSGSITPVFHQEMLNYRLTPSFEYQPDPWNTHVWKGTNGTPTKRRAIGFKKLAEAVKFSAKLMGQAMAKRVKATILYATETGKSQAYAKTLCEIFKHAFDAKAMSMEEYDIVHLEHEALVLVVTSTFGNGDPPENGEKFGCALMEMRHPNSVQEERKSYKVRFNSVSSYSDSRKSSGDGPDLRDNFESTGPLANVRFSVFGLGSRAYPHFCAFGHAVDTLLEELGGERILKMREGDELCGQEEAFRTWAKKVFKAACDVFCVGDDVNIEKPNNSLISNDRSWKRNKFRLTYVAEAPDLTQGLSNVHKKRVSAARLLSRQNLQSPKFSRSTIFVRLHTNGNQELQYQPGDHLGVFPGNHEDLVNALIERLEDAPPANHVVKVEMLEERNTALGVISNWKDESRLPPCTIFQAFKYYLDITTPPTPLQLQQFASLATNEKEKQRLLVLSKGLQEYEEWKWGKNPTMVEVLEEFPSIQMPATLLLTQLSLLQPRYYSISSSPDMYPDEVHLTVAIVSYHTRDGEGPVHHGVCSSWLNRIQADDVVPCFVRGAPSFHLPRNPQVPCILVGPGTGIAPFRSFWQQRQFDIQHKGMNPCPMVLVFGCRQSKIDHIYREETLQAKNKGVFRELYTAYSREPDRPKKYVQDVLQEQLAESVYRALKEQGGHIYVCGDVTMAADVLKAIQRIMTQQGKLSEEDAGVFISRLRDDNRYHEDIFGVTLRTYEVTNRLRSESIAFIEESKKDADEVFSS
H2 receptor, sequence (P25021 whole entry): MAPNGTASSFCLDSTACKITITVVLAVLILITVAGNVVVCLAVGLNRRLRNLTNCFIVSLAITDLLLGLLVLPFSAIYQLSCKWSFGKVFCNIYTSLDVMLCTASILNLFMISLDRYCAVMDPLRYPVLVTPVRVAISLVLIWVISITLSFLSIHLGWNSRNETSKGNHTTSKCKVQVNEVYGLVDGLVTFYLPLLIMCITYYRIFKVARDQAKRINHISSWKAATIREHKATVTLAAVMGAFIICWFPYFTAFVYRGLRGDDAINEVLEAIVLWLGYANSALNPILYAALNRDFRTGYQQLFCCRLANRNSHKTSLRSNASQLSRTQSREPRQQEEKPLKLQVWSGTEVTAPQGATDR

With `Cc1cc(N)nc2cc(-c3cncc(CN)c3)ccc12.Cl.Cl.Cl` [compound 15, 7-(5-(Aminomethyl)pyridin-3-yl)-4-methylquinolin-2-amine Trihydrochloride] the “less potent than 12 in rnNOS” value ([1]; relative to 12) was “approximately 5 fold”.
With `Cc1cc(N)nc2cc(-c3ccc(OCc4cncs4)c(CN)c3)ccc12` [compound 37, 7-(3-(Aminomethyl)-4-(thiazol-5-ylmethoxy)phenyl)-4-methylquinolin-2-amine Trihydrochloride] the “prediction (CNS)” value [2] was “CNS (+) (classified as a “CNS (+)” molecule if its effective permeability (Pe) in this assay is larger than 4.0 × 10^–6 cm s^–1)”.
In the case of `Cc1cc(N)nc2cc(-c3ccc(OCC4CC4)c(CN)c3)ccc12` [compound 29, 7-(3-(Aminomethyl)-4-(cyclopropylmethoxy)phenyl)-4-methylquinolin-2-amine Dihydrochloride], the “PDSP targets classified moderate” value [3] is reported as 4, the “PDSP targets classified insignificant” value [3] is reported as 13 and the “PDSP targets classified weak” value [3] is reported as 27. The “PDSP targets classified Concerning” value ([3]; Ki < 100 nM) was 1, the “off-target binding class, H3 receptor” value [4] was “concerning (concerning (Ki < 100 nM, or <~2 × nNOS Ki value))” and the “prediction (CNS)” value [2] was “CNS (+) (classified as a “CNS (+)” molecule if its effective permeability (Pe) in this assay is larger than 4.0 × 10^–6 cm s^–1)”.
For `Cc1cc(N)nc2cc(-c3ccc(CN)cc3)ccc12.Cl.Cl` [compound 7, 7-(4-(Aminomethyl)phenyl)-4-methylquinolin-2-amine Dihydrochloride], the “increase in rnNOS activity” value ([1]; relative to 5) was 2.3 fold and the “prediction (CNS)” value [2] was “CNS (+) (classified as a “CNS (+)” molecule if its effective permeability (Pe) in this assay is larger than 4.0 × 10^–6 cm s^–1)”.
In the case of `Cc1cc(N)nc2cc(-c3ccc(OCc4cocn4)c(CN)c3)ccc12` [compound 36, 7-(3-(Aminomethyl)-4-(oxazol-4-ylmethoxy)phenyl)-4-methylquinolin-2-amine Trihydrochloride], the “increased potency against the double mutant (versus the single mutant)” value [5] is reported as 5 fold.
With `NCCc1ccc(O)c(O)c1` [dopamine, reference compound] the “prediction (CNS)” value [2] was “CNS (−)”.
In the case of `CNCCc1ccc(-c2ccc3c(C)cc(N)nc3c2)cc1.Cl.Cl` [compound 6, 4-Methyl-7-(4-(2-(methylamino)ethyl)phenyl)quinolin-2-amine Dihydrochloride], the “loss in rnNOS activity” value ([1]; relative to 5) is reported as over 2 fold.
For `Cc1cc(N)nc2cc(-c3ccc(OCc4cccnc4)c(CN)c3)ccc12` [compound 33, 7-(3-(Aminomethyl)-4-(pyridin-3-ylmethoxy)phenyl)-4-methylquinolin-2-amine Trihydrochloride], the “improvement in binding affinity toward heNOS” value ([6]; 33 versus 32) was 3 fold, the “fraction of concerning or moderate hits” value [3] was 8 /45 and the “PDSP targets classified moderate” value [3] was 5. The “PDSP targets classified insignificant” value [3] was 20, the “PDSP targets classified weak” value [3] was 17 and the “PDSP targets classified Concerning” value ([3]; […]) was 3. For the same compound, the “prediction (CNS)” value [2] was “CNS (+) (classified as a “CNS (+)” molecule if its effective permeability (Pe) in this assay is larger than 4.0 × 10^–6 cm s^–1)”.
For “7-(3-(2-Aminoethyl)phenyl)-4-methylquinolin-2-amine Dihydrochloride [compound 12]”, the Ki ([6]; read-out: Ki heNOS, purified human eNOS, Ki calculated from IC50) was 52.6 µM, the Ki ([7]; read-out: Ki D597N rnNOS, single mutant (SM) of rat nNOS) was 0.416 µM and the “decrease in potency, D597N mutant” value ([7]; versus wild type) was 8 fold. The “off-target binding class, H2 receptor” value [8] was “concerning (concerning (Ki < 100 nM, or <~2 × nNOS Ki value))”, the “% remaining at 60 min (- NADPH)” value (HLM without NADPH, pH 7.4) was 87% and the “% remaining at 60 min (Buffer)” value (buffer control) was 67%. For the same compound, the CLint (in vitro intrinsic clearance, HLM) was 8 mL/min/kg, the Ki [9] was 29.9 µM and the “prediction (CNS)” value [2] was “CNS (+) (classified as a “CNS (+)” molecule if its effective permeability (Pe) in this assay is larger than 4.0 × 10^–6 cm s^–1)”.
In the case of `Cc1cc(N)nc2cc(-c3ccc(OCc4ccccn4)c(CN)c3)ccc12` [compound 32, 7-(3-(Aminomethyl)-4-(pyridin-2-ylmethoxy)phenyl)-4-methylquinolin-2-amine Trihydrochloride], the “fraction of concerning or moderate hits” value [3] is reported as 11 /45, the “PDSP targets classified insignificant” value [3] is reported as 12 and the “PDSP targets classified weak” value [3] is reported as 22. The “PDSP targets classified Concerning” value ([3]; […]) was 4.
